Reference: patent US20110039770A1, “INHIBITORS OF PROTEIN KINASE C ISOFORMS AND USES THEREOF” (PHARMAGAP INC., priority 2005, published 2011)
Where a SMILES comes first, the peptide text is derived from it. Bridges are numbered along the chain shown (N, C = ends). Roman numbers before positions name the chains, in order. [ ]: non-standard residue; d: D form. The star is where a group is joined. Adenin9ylacetyl = Nc1ncnc2c1ncn2CC(=O)*; Gly(N-2-aminoethyl) = NCCNCC(=O)O

What was measured:
Assay type in all cases: biochemical
PKC delta [1] = molecular target: T1, PKC delta (Homo sapiens, UniProt Q05655); assay: Kinase-Glo Luminescent Kinase Assay
Description: Compounds TIM 10, 11, 13, 14, 15, and 18-22 (see Table 28) were tested for their ability to inhibit the activity of PKC-alpha, beta 1, delta and epsilon isoforms the Kinase-Glo™ Luminescent Kinase Assay (Promega, Cat # V6712/3/4) following the manufacturer's instructions.

PKC beta 2 = molecular target: T2, PKC beta 2 (Homo sapiens, UniProt P05771); assay: PepTag Non-Radioactive PKC Assay, purified isoform; settings: negative = activation
T2 construct: purchased
Description: (§1) The inhibitory effect of the PKI compounds 1 to 10 on purified commercially available isoforms representative of the 3 classes of PKC: cPKC (alpha, betaI/II) nPKC (delta and epsilon) aPKC (zeta) was assayed using the PepTag® Non-Radioactive PKC Assay (Promega, Madison, Wis.). The zeta isoform was tested with this assay although its affinity for the substrate provided in the kit was relatively low. The amount of enzyme in the reaction mixture for the PKC zeta assays was multiplied by 2. The assay was used following the manufacturer's recommendations. The principle of the assay is based on the difference in charge of phosphorylated (negatively charged) form versus the non-phoshorylated form of a fluorescent substrate. The two forms can be separated by gel electrophoresis and the negatively charged band excised and the fluorescence measured (exc. 440 nm and em. 590 nm) in 96 well plates on a Galaxy FluoStar plate reader. The PKI compounds were added to the assay mixture at 3 doses: 150, 300 and 600 μM and an extra 75 μM when the inhibition was too high. The assay is strictly biochemical and the doses of the compounds used, therefore, are generally not correlative with in vivo situations.

PKC delta [2] = molecular target: T1, PKC delta; assay: PepTag Non-Radioactive PKC Assay, purified isoform; settings: negative = activation
Description: as §1

PKC beta 1 = PKC beta 1 (Homo sapiens, UniProt P05771); assay: PepTag Non-Radioactive PKC Assay, purified isoform; design: purchased; settings: negative = activation
Description: as §1

PKC alpha = PKC alpha (Homo sapiens, UniProt P17252); assay: PepTag Non-Radioactive PKC Assay, purified isoform; design: purchased; settings: negative = activation
Description: as §1

PKC epsilon = molecular target: T3, PKC epsilon (Homo sapiens, UniProt Q02156); assay: PepTag Non-Radioactive PKC Assay, purified isoform; design: purchased; settings: negative = activation
T3 sequence (Q02156 1-737): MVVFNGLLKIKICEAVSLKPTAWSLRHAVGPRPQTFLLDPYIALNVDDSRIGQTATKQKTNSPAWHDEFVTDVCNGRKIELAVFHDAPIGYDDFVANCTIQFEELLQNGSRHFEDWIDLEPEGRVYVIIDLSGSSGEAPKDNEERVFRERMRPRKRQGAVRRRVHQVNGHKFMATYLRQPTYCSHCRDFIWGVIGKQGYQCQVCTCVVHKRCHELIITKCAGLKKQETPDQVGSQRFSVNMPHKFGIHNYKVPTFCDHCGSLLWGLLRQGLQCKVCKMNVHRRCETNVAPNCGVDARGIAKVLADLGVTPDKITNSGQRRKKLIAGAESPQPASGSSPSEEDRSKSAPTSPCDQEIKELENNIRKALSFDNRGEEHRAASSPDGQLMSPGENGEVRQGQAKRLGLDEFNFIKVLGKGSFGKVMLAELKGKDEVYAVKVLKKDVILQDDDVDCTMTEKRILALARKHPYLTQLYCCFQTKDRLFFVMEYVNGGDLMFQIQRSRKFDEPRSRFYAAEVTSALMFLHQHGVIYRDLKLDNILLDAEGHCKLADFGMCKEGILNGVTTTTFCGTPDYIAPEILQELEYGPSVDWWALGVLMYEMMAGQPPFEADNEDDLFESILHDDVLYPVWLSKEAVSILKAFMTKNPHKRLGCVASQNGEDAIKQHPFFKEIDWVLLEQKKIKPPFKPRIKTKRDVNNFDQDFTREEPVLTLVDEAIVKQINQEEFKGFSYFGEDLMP
Description: as §1

PKC zeta = molecular target: T4, PKC zeta (Homo sapiens, UniProt Q05513); assay: PepTag Non-Radioactive PKC Assay, purified isoform; design: purchased; settings: enzyme amount x2, negative = activation
T4 sequence (Q05513 1-592): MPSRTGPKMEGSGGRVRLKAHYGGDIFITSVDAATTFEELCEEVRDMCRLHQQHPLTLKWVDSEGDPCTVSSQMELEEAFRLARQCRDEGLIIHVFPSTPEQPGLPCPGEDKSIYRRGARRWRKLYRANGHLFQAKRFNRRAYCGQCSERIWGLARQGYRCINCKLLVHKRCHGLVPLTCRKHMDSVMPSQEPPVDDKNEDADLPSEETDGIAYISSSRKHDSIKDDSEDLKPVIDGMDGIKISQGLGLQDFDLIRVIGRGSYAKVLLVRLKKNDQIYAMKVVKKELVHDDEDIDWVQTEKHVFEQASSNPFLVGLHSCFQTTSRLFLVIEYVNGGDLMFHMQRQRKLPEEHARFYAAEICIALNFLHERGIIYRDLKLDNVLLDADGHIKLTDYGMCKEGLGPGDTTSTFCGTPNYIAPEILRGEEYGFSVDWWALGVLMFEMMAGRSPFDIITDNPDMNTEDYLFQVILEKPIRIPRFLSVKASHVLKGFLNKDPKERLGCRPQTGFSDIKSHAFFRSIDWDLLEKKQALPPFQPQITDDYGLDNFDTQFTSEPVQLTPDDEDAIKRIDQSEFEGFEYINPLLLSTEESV
Description: as §1

Sequence of PKC beta 1 (P05771 whole entry, canonical isoform): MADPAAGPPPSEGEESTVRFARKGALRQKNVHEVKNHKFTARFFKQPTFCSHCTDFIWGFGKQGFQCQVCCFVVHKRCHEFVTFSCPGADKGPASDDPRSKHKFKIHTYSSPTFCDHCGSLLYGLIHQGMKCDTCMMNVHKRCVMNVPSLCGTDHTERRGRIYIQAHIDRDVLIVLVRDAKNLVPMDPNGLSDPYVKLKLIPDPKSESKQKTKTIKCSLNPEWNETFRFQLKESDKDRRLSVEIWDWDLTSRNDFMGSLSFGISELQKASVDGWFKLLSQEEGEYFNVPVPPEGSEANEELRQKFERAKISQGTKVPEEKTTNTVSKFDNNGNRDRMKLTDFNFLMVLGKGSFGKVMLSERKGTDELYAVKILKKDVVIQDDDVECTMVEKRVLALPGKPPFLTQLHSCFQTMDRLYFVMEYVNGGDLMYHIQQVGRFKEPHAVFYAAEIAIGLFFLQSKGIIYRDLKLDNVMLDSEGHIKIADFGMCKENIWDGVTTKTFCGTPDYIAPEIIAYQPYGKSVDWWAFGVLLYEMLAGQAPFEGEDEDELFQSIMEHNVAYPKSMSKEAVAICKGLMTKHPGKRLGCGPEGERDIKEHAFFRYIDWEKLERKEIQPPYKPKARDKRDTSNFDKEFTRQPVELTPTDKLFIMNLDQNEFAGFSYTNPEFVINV
T2 sequence (P05771 1-673 isoform P05771-2): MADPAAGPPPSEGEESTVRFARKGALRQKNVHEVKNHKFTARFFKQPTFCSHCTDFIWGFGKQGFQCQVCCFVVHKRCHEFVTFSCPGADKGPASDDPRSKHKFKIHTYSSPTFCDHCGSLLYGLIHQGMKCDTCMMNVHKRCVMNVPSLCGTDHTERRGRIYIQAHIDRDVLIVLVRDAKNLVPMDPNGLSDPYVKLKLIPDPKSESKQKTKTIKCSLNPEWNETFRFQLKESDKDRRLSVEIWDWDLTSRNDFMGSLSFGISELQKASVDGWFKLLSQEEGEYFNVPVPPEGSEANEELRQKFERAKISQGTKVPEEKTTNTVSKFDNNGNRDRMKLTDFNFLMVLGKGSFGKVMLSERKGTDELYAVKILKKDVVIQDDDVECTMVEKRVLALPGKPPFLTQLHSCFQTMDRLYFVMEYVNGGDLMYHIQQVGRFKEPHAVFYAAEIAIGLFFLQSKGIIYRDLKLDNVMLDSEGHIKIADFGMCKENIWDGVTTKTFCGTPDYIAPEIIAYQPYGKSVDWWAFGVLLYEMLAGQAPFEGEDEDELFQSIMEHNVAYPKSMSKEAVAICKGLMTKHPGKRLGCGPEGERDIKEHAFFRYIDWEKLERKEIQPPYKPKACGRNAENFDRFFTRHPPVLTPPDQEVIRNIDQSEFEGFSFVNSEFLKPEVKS
T1 sequence (Q05655 whole entry, canonical isoform): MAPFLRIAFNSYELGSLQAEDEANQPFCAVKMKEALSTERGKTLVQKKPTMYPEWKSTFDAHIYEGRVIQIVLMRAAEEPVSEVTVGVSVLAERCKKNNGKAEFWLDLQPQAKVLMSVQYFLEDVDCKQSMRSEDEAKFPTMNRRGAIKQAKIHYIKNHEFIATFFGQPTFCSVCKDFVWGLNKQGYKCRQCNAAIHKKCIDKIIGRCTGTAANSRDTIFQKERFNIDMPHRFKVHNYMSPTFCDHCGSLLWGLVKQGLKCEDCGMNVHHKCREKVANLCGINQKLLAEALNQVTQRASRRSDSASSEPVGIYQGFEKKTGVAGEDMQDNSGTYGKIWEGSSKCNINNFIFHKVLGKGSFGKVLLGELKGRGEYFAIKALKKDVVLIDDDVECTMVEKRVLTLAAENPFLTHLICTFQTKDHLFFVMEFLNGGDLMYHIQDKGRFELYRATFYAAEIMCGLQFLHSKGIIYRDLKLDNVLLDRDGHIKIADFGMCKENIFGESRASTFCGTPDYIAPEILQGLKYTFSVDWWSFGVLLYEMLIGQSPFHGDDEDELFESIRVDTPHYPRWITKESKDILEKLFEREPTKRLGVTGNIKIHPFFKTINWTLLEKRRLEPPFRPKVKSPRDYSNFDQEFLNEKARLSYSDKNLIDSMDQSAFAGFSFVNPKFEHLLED

In the case of “Ac—FRRCFRL—(G)7—RRKKGGKDFVVKR—NH2 (Ac-FRRCFRLGGGGGGGRRKKGGKDFVVKR-NH2) [TIM 20, PRE 1 and PKI 4]”, the “% Inhibition PKC-δ” value (PKC delta [1]; 5.0 μM) is reported as 46.0%, the “% Inhibition PKC-δ” value (PKC delta [1]; 30.0 μM) is reported as 45.4% and the “inhibition of PKC delta activity (in words)” value (PKC delta [1]; Kinase-Glo) is reported as “good specificity for PKC delta”.
With `CC[C@H](C)[C@H](NC(=O)[C@H](CSSC[C@H](NC(=O)CNC(=O)CN(CCN)C(=O)Cn1cnc2c(N)ncnc21)C(=O)N[C@@H](CCCCN)C(=O)NCC(=O)N[C@@H](CCCCN)C(=O)N[C@@H](Cc1ccccc1)C(=O)N[C@@H](CCCCN)C(=O)N[C@@H](CCCNC(=N)N)C(N)=O)NC(=O)[C@H](Cc1c[nH]cn1)NC(C)=O)C(=O)NCC(=O)N[C@@H](CCCNC(=N)N)C(=O)N[C@@H](Cc1ccccc1)C(=O)N[C@@H](CCCCN)C(N)=O` [PKI 1] (I: Adenin9ylacetyl-[Gly(N-2-aminoethyl)]GCKGKFKR-NH2 / II: Ac-HCIGRFK-NH2; disulfide I:3-II:2; C-terminus assumed) the inhibition at 150 µM (PKC beta 2; 150 μM) was 78%, the inhibition at 300 µM (PKC beta 2; 300 μM) was 90% and the inhibition at 600 µM (PKC beta 2; 600 μM) was 92%. For the same compound, the inhibition at 150 µM (PKC delta [2]; 150 μM) was 56%, the inhibition at 300 µM (PKC delta [2]; 300 μM) was 61% and the inhibition at 600 µM (PKC delta [2]; 600 μM) was 88%. For the same compound, the inhibition at 150 µM (PKC beta 1; 150 μM) was 71%, the inhibition at 300 µM (PKC beta 1; 300 μM) was 92% and the inhibition at 600 µM (PKC beta 1; 600 μM) was 93%. The inhibition at 150 µM (PKC alpha; 150 μM) was 78%, the inhibition at 300 µM (PKC alpha; 300 μM) was 84% and the inhibition at 600 µM (PKC alpha; 600 μM) was 87%. For the same compound, the inhibition at 150 µM (PKC epsilon; 150 μM) was 54%, the inhibition at 300 µM (PKC epsilon; 300 μM) was 58% and the inhibition at 600 µM (PKC epsilon; 600 μM) was 83%. The inhibition at 150 µM (PKC zeta; 150 μM) was 15%, the inhibition at 300 µM (PKC zeta; 300 μM) was 10% and the inhibition at 600 µM (PKC zeta; 600 μM) was 20%.
